Experimental data published in article PMC5575539 (Journal of Clinical Pharmacology, 2017).
Read-outs that look alike come from different tables or passages of the source.

Experiments:
[1] = 4‐week cycles, continuous schedule; subjects with Child‐Pugh class A; cited from earlier work
[2] = Population pharmacokinetic analysis of lenvatinib; type: in vivo, human; settings: for Additional (ng/mL) (TAD ≤ 2 hours) / Proportional (%CV) (Clinical pharmacology studies) / Proportional (%CV) (Patient studies) / Proportional (%CV) (TAD ≤ 2 hours): residual error
[3] = type: in vivo, human; settings: ROC curve; TEAEs during cycle 1; subjects with HCC
[4] = test system: subjects with HCC Child‐Pugh class A; settings: 12 mg QD; independent radiologic review per modified RECIST; cited from earlier work
[5] = type: in vivo, human; settings: for AUC: human, plasma, oral, 12 mg, Median AUC based on the starting dose, steady state, model‐derived
[6] = final model, bootstrap median (2.5‐97.5 percentile)
[7] = final model, population mean (%RSE)
[8] = base model, population mean (%RSE)

COc1cc2nccc(Oc3ccc(NC(=O)NC4CC4)c(Cl)c3)c2cc1C(N)=O [lenvatinib]
Maximum tolerated dose [1]: 12 mg QD
Ka ([2]; base model, population mean (%RSE), absorption rate): 1.02 (6.06) L/h
D1 ([2]; base model, population mean (%RSE), duration of 0‐order absorption): 1.05 (5.45) hours
F1 (capsule vs tablet formulation) ([2]; base model, population mean (%RSE), relative bioavailability): 0.832 (0.982)
Effect of the HCC population (HCC vs other cancer type) on CL/F ([2]; covariate analysis, model including body weight and alkaline phosphatase effects): not a statistically significant effect
CL/F interindividual variability explained by body weight ([2]; final PK model): 10.5%
CL/F interindividual variability explained by other covariates ([2]; final PK model): 14.3%
Decrease of CL/F with CYP3A4 inhibitors ([2]; final PK model): 7.8%
Decrease of CL/F with alkaline phosphatase above the upper limit of normal ([2]; final PK model): 14.8%
Higher CL/F in healthy subjects than in patients with cancer ([2]; final PK model): 19%
Increase of CL/F with concomitant administration of CYP3A4 inducers ([2]; final PK model): 30%
Decrease of CL/F with alkaline phosphatase above the upper limit of normal ([2]; final PK model, listed as Lenvatinib): 15%
ALP (> ULN vs ≤ ULN) on CL/F [ΘALP] [2, 6]: 0.855 (0.807‐0.910)
Body weight on V1/F, V2/F, and V3/F [ΘWGT2] [2, 6]: 1.08 (0.876‐1.28)
D1 [2, 6]: 1.06 (0.987‐1.14) hours
F1 (capsule vs tablet formulation) [2, 6]: 0.867 (0.815‐0.908)
Ka [2, 6]: 1.04 (0.933‐1.13) L/h
Population (healthy vs subjects) on CL/F [ΘTM] [2, 6]: 1.19 (1.11‐1.27)
ALP (> ULN vs ≤ ULN) on CL/F [ΘALP] [2, 7]: 0.852 (1.24)
Population (healthy vs subjects) on CL/F [ΘTM] [2, 7]: 1.19 (3.26)
Ka ([2]; final model, population mean (%RSE), absorption rate): 1.04 (6.80) L/h
D1 ([2]; final model, population mean (%RSE), duration of 0‐order absorption): 1.06 (5.77) hours
Body weight on V1/F, V2/F, and V3/F [ΘWGT2] ([2]; final model, population mean (%RSE), power exponent on WGT/75): 1.08 (5.42)
F1 (capsule vs tablet formulation) ([2]; final model, population mean (%RSE), relative bioavailability): 0.867 (1.00)
Differences in CL/F between HCC Child‐Pugh class A and B groups ([2]; population PK analysis): No differences in CL/F
Additional (ng/mL) (TAD ≤ 2 hours) [2, 8]: 7.29 (16.2) ng/mL
Proportional (%CV) (Clinical pharmacology studies) [2, 8]: 18.4 (0.888) %CV
Proportional (%CV) (Patient studies) [2, 8]: 30.7 (2.03) %CV
Proportional (%CV) (TAD ≤ 2 hours) [2, 8]: 44.9 (3.75) %CV
Additional (ng/mL) (TAD ≤ 2 hours) [2, 6]: 7.50 (4.62‐9.85) ng/mL
Proportional (%CV) (Clinical pharmacology studies) [2, 6]: 17.1 (15.5‐18.8) %CV
Proportional (%CV) (Patient studies) [2, 6]: 30.1 (27.7‐32.2) %CV
Proportional (%CV) (TAD ≤ 2 hours) [2, 6]: 44.8 (40.7‐48.8) %CV
Additional (ng/mL) (TAD ≤ 2 hours) [2, 7]: 7.35 (16.3) ng/mL
Proportional (%CV) (Clinical pharmacology studies) [2, 7]: 17.3 (0.883) %CV
Proportional (%CV) (Patient studies) [2, 7]: 30.2 (2.00) %CV
Proportional (%CV) (TAD ≤ 2 hours) [2, 7]: 44.8 (3.87) %CV
Best cutoff value of lenvatinib AUC to predict high‐risk group for early drug withdrawal or dose reduction [3]: 2430 ng·h/mL
Median time to progression [4]: 7.4 months
Objective response rate [4]: 37%
Subjects who experienced TEAEs leading to dose reduction or discontinuation during cycle 1 ([5]; 21 of 45 subjects in the exposure–response population, 12 mg QD, HCC): 46.7%
Relationship between lenvatinib exposure and response (time to progression) ([5]; Kaplan‐Meier, tertiles of AUC based on starting dose of 12 mg, independent reviewer assessments): No relationship
AUC ([5]; subjects with early dose withdrawal or reduction): 2950 ng·h/mL
AUC ([5]; subjects without early dose modification): 2050 ng·h/mL
